Reference: article PMC3510655 (Chemical science (Royal Society of Chemistry : 2010), 2013)

Target: T1, quinone reductase 2 (QR2) (Homo sapiens, UniProt P16083)
T1 sequence (P16083 1-231): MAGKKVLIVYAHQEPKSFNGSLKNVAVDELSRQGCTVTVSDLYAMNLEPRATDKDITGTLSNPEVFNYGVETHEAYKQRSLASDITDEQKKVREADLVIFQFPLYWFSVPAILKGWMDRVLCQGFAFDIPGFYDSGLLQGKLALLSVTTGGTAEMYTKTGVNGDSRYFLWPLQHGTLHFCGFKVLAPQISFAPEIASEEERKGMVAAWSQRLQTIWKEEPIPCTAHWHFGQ
Assay: QR2 inhibition assay using human recombinant protein
Type: biochemical
Details: authors' assay system

IC50 against QR2 | Substance
nearly equipotent to 4 | Ammosamide E [compound 1]
irreproducible results | Ammosamide H [compound 10]
